Measurements: ChEMBL document CHEMBL1201862, “PubChem BioAssay data set” (2004)
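Interpolation was linear, between the two tested concentrations surrounding the appropriate level; five concentrations were tested over 48 hours in 96-well plates. GI50 is the concentration that inhibits growth by half.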 Active and inactive are the calls of the source. No stated cut-off is given here; in the data, active = GI50 up to about 1.1 µM and inactive = higher.

Tests used:
Assay in all cases: DTP human tumour cell line panel, 48 h
HCC 2998 = tested on: HCC 2998
A498 = tested on: A498
CCRF-CEM = tested on: CCRF-CEM
NCI-H23 = tested on: NCI-H23
NCI-H460 = tested on: NCI-H460
SNB-75 = tested on: SNB-75
RPMI-8226 = tested on: RPMI-8226
OVCAR-5 = tested on: OVCAR-5
M14 = tested on: M14
RXF 393 = tested on: RXF 393
SNB-78 = tested on: SNB-78
SK-MEL-5 = tested on: SK-MEL-5
OVCAR-3 = tested on: OVCAR-3
A549 = tested on: A549
IGROV-1 = tested on: IGROV-1
DU-145 = tested on: DU-145
BT-549 = tested on: BT-549
NCI/ADR-RES = tested on: NCI/ADR-RES
MDA-MB-231 = tested on: MDA-MB-231
Hs-578T = tested on: Hs-578T

SMILES | GI50 (HCC 2998) | GI50 (A498) | GI50 (CCRF-CEM) | GI50 (NCI-H23) | GI50 (NCI-H460) | GI50 (SNB-75) | GI50 (RPMI-8226) | GI50 (OVCAR-5) | GI50 (M14) | GI50 (RXF 393) | GI50 (SNB-78) | GI50 (SK-MEL-5) | GI50 (OVCAR-3) | GI50 (A549) | GI50 (IGROV-1) | GI50 (DU-145) | GI50 (BT-549) | GI50 (NCI/ADR-RES) | GI50 (MDA-MB-231) | GI50 (Hs-578T)
COc1ccc(C2Oc3c(c(O)cc4c3[C@H](c3ccc(O)cc3O)[C@H](O)C(c3ccc(O)c(O)c3)O4)C[C@@H]2O)cc1O (some centres not stated) | > 100 µM (inactive) | > 100 µM (inactive) | > 100 µM (inactive) | > 100 µM (inactive) | > 100 µM (inactive) | > 100 µM (inactive) | > 100 µM (inactive) | > 100 µM (inactive) | > 100 µM (inactive) | > 100 µM (inactive) | > 100 µM (inactive) | > 100 µM (inactive) | > 100 µM (inactive) | > 100 µM (inactive) | > 100 µM (inactive) | – | – | – | – | –
COC(=O)C(=O)C(C(C)=O)C(=O)NCc1ccc(OC)c(OC)c1 (configuration not stated) | > 100 µM (inactive) | > 100 µM (inactive) | > 100 µM (inactive) | > 100 µM (inactive) | > 100 µM (inactive) | > 100 µM (inactive) | – | > 100 µM (inactive) | > 100 µM (inactive) | 78.5 µM (inactive) | > 100 µM (inactive) | > 100 µM (inactive) | > 100 µM (inactive) | > 100 µM (inactive) | > 100 µM (inactive) | – | – | – | – | –
Cc1cc2c(C)n(Cc3ccc(Cl)cc3Cl)nc2c(C#N)c1C | > 100 µM (inactive) | 65.8 µM (inactive) | > 100 µM (inactive) | 41.7 µM (inactive) | 35.9 µM (inactive) | 7.94 µM (inactive) | 99.3 µM (inactive) | > 42.1 µM (inactive) | 49 µM (inactive) | 15.3 µM (inactive) | 24.4 µM (inactive) | 85.3 µM (inactive) | 34.7 µM (inactive) | 28.2 µM (inactive) | 41 µM (inactive) | – | – | – | – | –
O=C(Nc1ccc(Br)cc1)C(=O)C(C(=O)c1ccc(Cl)c(Cl)c1)C1OC(=O)c2ccccc21 (configuration not stated) | 14.6 µM (inactive) | 16.2 µM (inactive) | 10 µM (inactive) | 13.9 µM (inactive) | 15.1 µM (inactive) | 20.8 µM (inactive) | 39.7 µM (inactive) | 17.3 µM (inactive) | 15.4 µM (inactive) | 3.5 µM (inactive) | 17.1 µM (inactive) | – | 18.5 µM (inactive) | 16.4 µM (inactive) | 18.5 µM (inactive) | – | – | – | – | –
O=C1c2ccccc2N2OC3(N4CCOCC4)CCCC3C12c1ccccc1 (configuration not stated) | > 100 µM (inactive) | > 100 µM (inactive) | > 100 µM (inactive) | > 100 µM (inactive) | – | > 100 µM (inactive) | > 100 µM (inactive) | – | > 100 µM (inactive) | 49.2 µM (inactive) | > 100 µM (inactive) | > 100 µM (inactive) | – | > 100 µM (inactive) | > 100 µM (inactive) | – | – | – | – | –
CCN(CC)c1ccc(/N=N/c2ccc(-c3nc4cccn(C)c-4n3)cc2)cc1 | – | 14.9 µM (inactive) | 3.75 µM (inactive) | 11.4 µM (inactive) | 5.07 µM (inactive) | 17 µM (inactive) | 2.36 µM (inactive) | 3.56 µM (inactive) | 9.33 µM (inactive) | 3.21 µM (inactive) | 16.7 µM (inactive) | 4.8 µM (inactive) | 10.5 µM (inactive) | 6.62 µM (inactive) | 10.7 µM (inactive) | – | – | – | – | –
CN(C)c1ccc(/C=C/c2cc[n+](C)c3ccccc23)cc1 | 6.32 µM (inactive) | 15.1 µM (inactive) | 1.9 µM (inactive) | 2.11 µM (inactive) | 2.9 µM (inactive) | 3.45 µM (inactive) | 2.95 µM (inactive) | 6.43 µM (inactive) | 3.44 µM (inactive) | 7.1 µM (inactive) | 7.59 µM (inactive) | 2.19 µM (inactive) | 1.77 µM (inactive) | 3.86 µM (inactive) | 5.16 µM (inactive) | 5.6 µM (inactive) | 0.437 µM (active) | > 100 µM (inactive) | 5.94 µM (inactive) | 2.74 µM (inactive)
COC1=CC(=O)c2c(O)c3c(c(O)c2C1=O)CC(C)(O)OC3 (configuration not stated) [FUSARUBIN] | 2.99 µM (inactive) | 9.66 µM (inactive) | 1.25 µM (inactive) | 2.28 µM (inactive) | 1.18 µM (inactive) | 16.1 µM (inactive) | 6.37 µM (inactive) | 4.46 µM (inactive) | 1.87 µM (inactive) | 4.17 µM (inactive) | – | 1.16 µM (inactive) | 0.906 µM (active) | 1.99 µM (inactive) | 1.99 µM (inactive) | 3.97 µM (inactive) | 6.44 µM (inactive) | 2.56 µM (inactive) | 2.84 µM (inactive) | 2.38 µM (inactive)
Oc1nc2cc(Cl)ccc2nc1/C(=N\Nc1ccccc1)C(O)c1ccc(Cl)c(Cl)c1 (configuration not stated) | > 100 µM (inactive) | – | > 100 µM (inactive) | > 100 µM (inactive) | > 100 µM (inactive) | > 100 µM (inactive) | > 100 µM (inactive) | > 100 µM (inactive) | > 100 µM (inactive) | > 100 µM (inactive) | > 100 µM (inactive) | > 100 µM (inactive) | > 100 µM (inactive) | > 100 µM (inactive) | > 100 µM (inactive) | – | – | – | – | –
